Measured values: patent US11957680B2, “Pyruvate kinase activators for use in treating blood disorders” (Agios Pharmaceuticals, Inc., priority 2017, dated 2024)

What was measured:
[1] = molecular target: PKR K410E (Homo sapiens, UniProt P30613, K410E); test: PKR mutant assay (K410E), AC50, LDH/NADH-coupled, absorbance at 340 nm; format: biochemical; settings: for EC50: Table 4, AC50, enzyme assay
In short: (§1)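 LDH/NADH-coupled read-out at 340 nm after ADP (0.2-1.65 mM) addition at room temperature. Beforehand, wild-type, K410E or R510Q human PKR (40-400 ng/well) sat 60 min with compound (top 100 μM, 3-fold, 11 points) plus PEP 0.1-0.5 mM, 180 μM NADH in 50 mM Tris pH 7.5, 100 mM KCl, 5 mM MgCl2, 1 mM DTT, 0.03% BSA.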

[2] = molecular target: T1, wild type PKR (Homo sapiens, UniProt P30613); test: PKR (wild type) enzyme AC50 assay, LDH/NADH-coupled, absorbance at 340 nm; format: biochemical; settings: for AC50: read-out: PKR WT AC50; for EC50: Table 4, AC50, enzyme assay, read-out: PKR WT
T1 sequence (P30613 whole entry): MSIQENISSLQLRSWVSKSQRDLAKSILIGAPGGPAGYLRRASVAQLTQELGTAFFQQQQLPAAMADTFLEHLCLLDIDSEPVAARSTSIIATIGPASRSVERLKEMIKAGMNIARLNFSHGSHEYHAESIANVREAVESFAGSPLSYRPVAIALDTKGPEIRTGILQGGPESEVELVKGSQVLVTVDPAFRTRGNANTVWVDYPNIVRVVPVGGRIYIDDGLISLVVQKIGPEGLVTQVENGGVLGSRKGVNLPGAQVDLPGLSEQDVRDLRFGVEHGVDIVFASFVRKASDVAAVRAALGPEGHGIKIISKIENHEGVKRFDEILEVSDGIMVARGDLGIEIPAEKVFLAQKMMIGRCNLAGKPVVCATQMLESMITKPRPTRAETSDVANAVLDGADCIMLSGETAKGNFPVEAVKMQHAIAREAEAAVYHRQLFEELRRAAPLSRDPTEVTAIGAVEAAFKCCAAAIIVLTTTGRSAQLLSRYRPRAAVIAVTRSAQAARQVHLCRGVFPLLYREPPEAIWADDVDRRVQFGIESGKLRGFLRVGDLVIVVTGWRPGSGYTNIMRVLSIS
In short: as §1

[3] = molecular target: T1, wild type PKR; test: Cell based ATP assay in purified red blood cells (Cell-Titer-Glo); set-up: endogenous in cells; host or cells: purified red blood cells from healthy volunteers; settings: overnight at 37° C., ATP levels; for AC50 / Cell based ATP assay AC50: Table 2, RBCs
In short: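 ATP levels were quantified by Cell-Titer-Glo after overnight 37 °C exposure of cells to compound (1:4 dilution series, 0.1% DMSO final). The cells were human erythrocytes, filter-purified to remove leukocytes and plated at 1×10^7 cells/mL in AGAM medium.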

[4] = molecular target: PKR R510Q (Homo sapiens, UniProt P30613, R510Q); test: PKR mutant assay (R510Q), AC50, LDH/NADH-coupled, absorbance at 340 nm; format: biochemical; settings: for AC50: Table 2, enzyme assay, read-out: PK R510Q AC50; for EC50: Table 4, AC50, enzyme assay, read-out: PK R510Q
Sequence of PKR R510Q (P30613 whole entry R510Q): as the sequence (P30613 whole entry) above, with R510Q counted along it
In short: as §1

Sequence of PKR K410E (P30613 whole entry K410E): as the sequence (P30613 whole entry) above, with K410E counted along it

AC50 ([1]; Table 2, enzyme assay) | AC50 ([2]; Table 2, enzyme assay) | AC50 [3] | AC50 [4] | EC50 [1] | EC50 [2] | EC50 [4] | Compound | other results
< 300 nM | < 300 nM | ≤ 1000 nM | < 300 nM | – | – | – | COc1ccc(Cc2nc3c(s2)c2cnn(Cc4cccc5[nH]ncc45)c(=O)c2n3C)cn1 [Compound 173] | –
– | – | – | – | > 800 nM | > 800 nM | > 800 nM | Cn1ccc(Cn2ncc3c4sc(CCc5cccnc5)nc4n(C)c3c2=O)n1 [Compound 406] | Cell based ATP assay ([3]; Table 4, AC50, RBCs): No Fit
< 300 nM | < 300 nM | ≤ 1000 nM | < 300 nM | – | – | – | COc1ccc(Cn2ncc3c4sc(Cc5cc[nH]n5)nc4n(C)c3c2=O)cc1 [Compound 123] | –
– | – | – | – | > 800 nM | 301 to 800 nM | 301 to 800 nM | Cn1c2nc(Cc3cnco3)sc2c2cnn(Cc3cccc4[nH]ncc34)c(=O)c21 [Compound 240] | EC50 ([3]; Table 4, AC50, RBCs): ≤ 1000 nM
– | – | – | – | < 300 nM | < 300 nM | < 300 nM | Cn1c2nc(CCc3cc[nH]n3)sc2c2cnn(Cc3cccc(N)n3)c(=O)c21 [Compound 394] | EC50 ([3]; Table 4, AC50, RBCs): ≤ 1000 nM
< 300 nM | < 300 nM | > 1000 nM | < 300 nM | – | – | – | CCc1nc2c(s1)c1cnn(Cc3cccc(OC)c3)c(=O)c1n2C [Compound 39] | –
– | – | – | – | < 300 nM | < 300 nM | < 300 nM | Cn1c2nc(Cc3cc[nH]n3)sc2c2cnn(Cc3n[nH]c4ncccc34)c(=O)c21 [Compound 374] | EC50 ([3]; Table 4, AC50, RBCs): ≤ 1000 nM
– | – | – | – | < 300 nM | < 300 nM | < 300 nM | Cn1c2nc(Cc3nccs3)sc2c2cnn(Cc3cccc4[nH]ncc34)c(=O)c21 [Compound 222] | EC50 ([3]; Table 4, AC50, RBCs): ≤ 1000 nM
– | – | – | – | < 300 nM | < 300 nM | < 300 nM | Cn1c2nc(Cc3cc[nH]n3)sc2c2cnn(Cc3n[nH]c4ccccc34)c(=O)c21 [Compound 372] | EC50 ([3]; Table 4, AC50, RBCs): ≤ 1000 nM
< 300 nM | < 300 nM | ≤ 1000 nM | < 300 nM | – | – | – | Cc1nc2c(s1)c1cnn(Cc3ccc(F)cc3)c(=O)c1n2C [Compound 9] | –
> 800 nM | – | – | > 800 nM | – | – | – | CSc1nc2c(s1)c1cnn(Cc3cn4cccnc4n3)c(=O)c1n2C [Compound 107] | PKR WT AC50 ([2]; Table 2, enzyme assay): No Fit; Cell based ATP assay AC50 [3]: No Fit
< 300 nM | < 300 nM | ≤ 1000 nM | < 300 nM | – | – | – | Cn1c2nc(Cc3ccccn3)sc2c2cnn(Cc3cccc4[nH]ncc34)c(=O)c21 [Compound 151] | –

Further lines, the compound ahead of its results:

Compound | AC50 ([1]; Table 2, enzyme assay) | AC50 ([2]; Table 2, enzyme assay) | AC50 [3] | AC50 [4] | EC50 [1] | EC50 [2] | EC50 [4] | other results
Cn1c2nc(Cc3cc[nH]n3)sc2c2cnn(Cc3ccc4c(c3)OCCO4)c(=O)c21 [Compound 122] | < 300 nM | < 300 nM | ≤ 1000 nM | < 300 nM | – | – | – | –
COc1cccc(Cn2ncc3c4sc(C(O)c5ccccc5)nc4n(C)c3c2=O)c1 (stereo not shown) [Compound 13] | < 300 nM | < 300 nM | ≤ 1000 nM | < 300 nM | – | – | – | –
Cn1c2nc([S+](C)[O-])sc2c2cnn(Cc3cccc4[nH]ncc34)c(=O)c21 (stereo not shown) [Compound 71] | 301 to 800 nM | 301 to 800 nM | ≤ 1000 nM | 301 to 800 nM | – | – | – | –
Cn1c2nc(Cc3cccc4cn[nH]c34)sc2c2cnn(Cc3cccc4[nH]ncc34)c(=O)c21 [Compound 181] | < 300 nM | < 300 nM | ≤ 1000 nM | < 300 nM | – | – | – | –
COc1cccc(Cn2ncc3c4sc(C(C)(C)O)nc4n(C)c3c2=O)c1 [Compound 63] | < 300 nM | < 300 nM | > 1000 nM | < 300 nM | – | – | – | –
COc1cccc(Cn2ncc3c4sc(C(=O)c5ccccc5)nc4n(C)c3c2=O)c1 [Compound 4] | – | > 800 nM | – | > 800 nM | – | – | – | PKR K410E AC50 ([1]; Table 2, enzyme assay): No Fit; Cell based ATP assay AC50 [3]: No Fit
Cn1c2nc([S+](C)[O-])sc2c2cnn(Cc3cccc4c3CCN4)c(=O)c21 (stereo not shown) [Compound 79] | < 300 nM | < 300 nM | ≤ 1000 nM | < 300 nM | – | – | – | –
CNc1ccc(Cc2nc3c(s2)c2cnn(Cc4cccc5[nH]ncc45)c(=O)c2n3C)cc1 [Compound 109] | < 300 nM | < 300 nM | ≤ 1000 nM | < 300 nM | – | – | – | –
Cn1c2nc([C@H](O)c3cc[nH]n3)sc2c2cnn(Cc3cccc4[nH]ncc34)c(=O)c21 [Compound 305] | – | – | – | – | < 300 nM | < 300 nM | < 300 nM | EC50 ([3]; Table 4, AC50, RBCs): ≤ 1000 nM
C=Cc1nc2c(s1)c1cnn(Cc3cccc4[nH]ncc34)c(=O)c1n2C [Compound 104] | > 800 nM | < 300 nM | > 1000 nM | < 300 nM | – | – | – | –
